# From patent US20060013770A1, “Method for screening for compounds as potential sedatives or anxiolytics” (priority 2002, published 2006)
# Legend:
# HPA axis [1] = conditions: at the level of the hypothalamic CRF neurons; cited from earlier work
# HPA axis [2] = assay: Effect on plasma corticosterone (HPA axis activity) in mice, radioimmunoassay; assay type: in vivo, NMRI mice
# HPA axis [3] = assay: Time course of the effect on the HPA axis (plasma ACTH and corticosterone), FIG. 2; assay type: in vivo; conditions: 10 mg/kg
# Experimental: One example of measuring the activity of the HPA axis is as follows: The animal Is treated with the NCE and sacrificed within an hour. As the release of ACTH occurs within an hour after the stimulation of the CRF neurons, animals are sacrificed at t=0, 5, 15, 30 and 60 minutes after administration. Trunk blood is taken, serum separated and levels of ACTH is measured in the serum by specific radioimmunoassay. Similarly, the level of glucocortcosteroids are determined at t=0, 30, 60, and 120 minutes (the response occurs somewhat later than ACTH) using a radioimmunoassay.
# [4] = i.p., 60 minutes after administration
structure (smiles),measurement,setting,value
CN1C(=O)CN=C(c2ccccc2)c2cc(Cl)ccc21 [Diazepam],effect on the HPA axis,HPA axis [1],slightly stimulate the HPA axis
"Cn1ncnc1COc1nn2c(-c3cc(F)ccc3F)nnc2cc1C(C)(C)C [L-838,417]",effect on plasma corticosterone,"HPA axis [2]; 12.5 mg/kg, 2 h after administration",no effects on plasma corticosterone was observed
same,effect on corticosterone,"HPA axis [2]; i.p., doses up to 12.5 mg/kg, 60 minutes after administration",no effect
"Cc1ccc(-c2nc3ccc(C)cn3c2CC(=O)N(C)C)cc1 [Zolpidem, zolpidem]",effect on plasma corticosterone at 25 mg/kg compared with 12.5 mg/kg,"HPA axis [2]; i.p., 25 mg/kg, 60 minutes after administration",not further increased
same,dose at which the effect on plasma corticosterone reached a maximum,HPA axis [2]; [4],12.5 mg/kg
same,doses from which plasma corticosterone is significantly increased,HPA axis [2]; [4],≥ 0.5 mg/kg
same,effect on plasma corticosterone,"HPA axis [2]; i.p., 60 minutes after administration, increasing doses",significantly and dose-dependently increased plasma corticosterone
same,time course of plasma ACTH and corticosterone,HPA axis [3],The rise in plasma ACTH precedes the rise in corticosterone
